Test results published in paper PMC6395926, “Mass Balance and Drug Interaction Potential of Intravenous Eravacycline Administered to Healthy Subjects” (Antimicrobial Agents and Chemotherapy, 2019).
“Also recorded” adds a separate entry of the source. Where two headings read alike, the source gives them in different places.

Tests used:
[1] = in vitro; previous studies, no reference given; cited from earlier work
[2] = Drug interaction study with rifampin (CYP3A4 inducer): plasma PK of i.v. eravacycline and metabolites; assay type: in vivo, human; conditions: in vivo
Description: Two single-center, open-label studies were conducted to evaluate the effects of itraconazole (CYP3A4 inhibitor) and rifampin (CYP3A4 inducer) on the pharmacokinetics of i.v. eravacycline in healthy subjects.
(ii) Study design. Each study included a 28-day screening period, a 13-day treatment period (19 days for rifampin), and an end-of-study visit 2 weeks after the last dose of study drug. […] For the itraconazole study, 200 mg oral itraconazole was administered q12h on day 8 and q24h on days 9 and 10. For the rifampin study, 600 mg oral rifampin was administered q24h from day 8 to day 17. All study treatments were administered in the fasting state.
(§1) (iii) Study assessments. Blood samples for PK analysis of eravacycline and its metabolites, TP-498, TP-6208, and TP-034, were collected predose and 1, 2, 4, 6, 8, 12, 24, 36, and 48 h after the start of the i.v. infusion on day 1 and day 10 (itraconazole) or day 1 and day 17 (rifampin). Safety assessments included AEs, clinical laboratory safety tests (hematology, serum chemistry, electrolytes, coagulation, urinalysis, and lipid profile), vital signs, physical examinations, and 12-lead ECG.
Concentrations of eravacycline, TP-498, and TP-6208 in human plasma samples were measured by LC-tandem MS after solid-phase extraction over a calibration range of 5.00 to 500 ng/ml. The LLOQ for eravacycline, TP-498, TP-6208, and TP-034 in human plasma was 5.00 ng/ml. Samples with eravacycline initial concentrations above the upper limit of quantification (500 ng/ml) were diluted appropriately with control blank human plasma and reanalyzed. There was no interference seen when human plasma was fortified with eravacycline, TP-498, TP-6208, and either itraconazole or rifampin.
(iv) Pharmacokinetic analysis. PK assessments included Cmax, Tmax, AUC0–24, AUC0–t, t1/2, CL, and Vss. Actual sampling time was used for PK calculations. PK parameters were derived by noncompartmental analysis. Descriptive statistics were calculated for analyte concentrations at each evaluation time point and for all quantitative PK parameters of eravacycline, TP-498, TP-6208, and TP-034 for day 1 and day 10 (day 17 for rifampin). The effect of itraconazole or rifampin on the PK profile of i.v. eravacycline was evaluated by comparing log-transformed PK parameters (Cmax and AUC0–t) associated with the administration of study drug on day 1 and day 10 (itraconazole) or day 1 and day 17 (rifampin) using paired t tests. The ratio and 90% confidence interval (CI) were presented after back transformation to the original scale. Pharmacokinetic variables were calculated using WinNonlin Professional.

[3] = Mass balance study: plasma PK of eravacycline, TP-498 and TP-6208 (LC-MS); assay type: in vivo, human; conditions: in vivo, iv
Description: (ii) Study design. This was a single-center, open-label study of a single i.v. dose of [^14C]eravacycline to assess the mass balance recovery and PK of eravacycline. The primary objectives were to determine mass balance recovery, determine routes and rates of excretion, provide metabolite profiling and structural identification, and assess the PK of radioactivity in plasma and whole blood. Subjects were screened for inclusion in the study, including a detailed medical history, physical examination, and laboratory evaluations, in the 28 days before dosing. Eligible subjects were admitted to the clinical study unit at approximately 21:00 on the evening prior to study drug administration (day −1) and remained on site until 240 h postdose for collection of urine, feces, and blood samples. After an overnight fast, each subject received 60 mg [^14C]eravacycline containing not more than 3.8 MBq (105 μCi) ^14C as a single i.v. infusion over 60 min.
(vi) Study assessments. PK parameters were determined for total radioactivity in plasma and whole blood. Eravacycline, TP-498, and TP-6208 concentrations in plasma were quantified using a validated assay with internal standards. The following PK parameters were determined: Cmax, Tmax, time from dosing before the first quantifiable concentration in a concentration versus time profile (Tlag), AUC0–t, AUC0–24, AUC0–∞, the percentage of AUC0–∞ extrapolated beyond the time of the last measurable concentration (AUC%extrap), the slope of the apparent terminal phase (lambda-z), the apparent terminal half-life (t1/2), the mean residence time estimated between time zero and infinity (MRT0-∞), the apparent volume of plasma cleared of analyte per unit time (CL), and the volume of distribution of analyte at steady state (Vss).
Plasma concentrations of eravacycline, TP-498, and TP-6208 were measured by liquid chromatography with tandem mass spectrometry (LC-MS). The LLOQ was 5 ng/ml for eravacycline, TP-498, and TP-6208. The calibration ranges for eravacycline, TP-498, and TP-6208 in human urine were 50 to 10,000 ng/ml, 50 to 1,000 ng/ml, and 20 to 1,000 ng/ml, respectively. The calibration ranges for eravacycline, TP-498, and TP-6208 in human plasma were 5 to 500 ng/ml.
(viii) Study analysis. Descriptive statistics (mean, median, standard deviation [SD], percent coefficient of variation [%CV], minimum, maximum, number, geometric mean, and geometric %CV) were calculated for all concentration data. Pharmacokinetic parameters were calculated using Phoenix WinNonlin v6.3 (Certera USA, Inc.).

[4] = Itraconazole drug interaction study: safety/tolerability; assay type: in vivo, human; conditions: itraconazole treatment period, 3 of 11 subjects
Description: as §1

[5] = set-up: species or system human; conditions: human, in vivo
Description: as §1

Structure (SMILES): CN(C)[C@H]1C(O)=C(C(N)=O)C(=O)[C@@]2(O)C(O)=C3C(=O)c4c(O)c(NC(=O)CN5CCCC5)cc(F)c4C[C@H]3C[C@@H]12 [TP-498]
- antimicrobial activity [1]: no in vitro antimicrobial activity; also recorded: None exhibit antimicrobial activity
- Mean Cmax and AUC0–24 when eravacycline was dosed with or without rifampin [2]: similar
- CLR ([3]; human): 85.7 ± 35.5 mL/min
- Cmax ([3]; human): 20.4 ± 18.9 ng/mL
- geometric mean AUC0–t, fold lower than that of eravacycline ([3]; human): 13.5 fold
- geometric mean Cmax, fold lower than that of eravacycline ([3]; human): 53.9 fold
- time postdose plasma concentrations were quantifiable [3]: 37 to 49 h

Structure (SMILES): CN(C)[C@@H]1C(=O)C(C(N)=O)=C(O)[C@@]2(O)C(=O)C3=C(O)c4c(O)c(N5C(=O)CN6CCCC65)cc(F)c4C[C@H]3C[C@@H]12 (some centres unmarked) [TP-6208]
- antimicrobial activity [1]: no in vitro antimicrobial activity; also recorded: None exhibit antimicrobial activity
- AUC0–∞ ([3]; human): 1780 ± 26.9 (n = 2) h·ng/ml
- Cmax ([3]; human): 42.8 ± 28.9 ng/mL
- geometric mean AUC0–t, fold lower than that of eravacycline ([3]; human): 2.9 fold
- geometric mean AUC0–∞, fold lower than that of eravacycline ([3]; human): 2.5 fold
- geometric mean Cmax, fold lower than that of eravacycline ([3]; human): 25.7 fold
- t1/2 ([3]; human): 18.8 ± 17.8 (n = 2) h
- time postdose plasma concentrations were quantifiable [3]: 49 to 73 h

Structure (SMILES): CCC(C)n1ncn(-c2ccc(N3CCN(c4ccc(OCC5COC(Cn6cncn6)(c6ccc(Cl)cc6Cl)O5)cc4)CC3)cc2)c1=O (centres unmarked) [itraconazole, reference compound]
- subjects who experienced an AE [4]: 27.3%

Structure (SMILES): CO[C@H]1/C=C/O[C@@]2(C)Oc3c(C)c(O)c4c(O)c(c(/C=N/N5CCN(C)CC5)c(O)c4c3C2=O)NC(=O)/C(C)=C\C=C\[C@H](C)[C@H](O)[C@@H](C)[C@@H](O)[C@@H](C)[C@H](OC(C)=O)[C@@H]1C [rifampin, reference compound]
- subjects who experienced an AE [5]: 8.3%
